This test deals with CEM cells HIV-1 protection, formazan growth assay. Nature of the test: NCI AIDS Antiviral Assay. As to conditions: for IC50: measured here: growth of uninfected CEM cells. Here is the method:
The ability of compounds to protect human CEM cells from HIV-1 infection is measured as a screen for new compounds capable of inhibiting the HIV virus. Five concentrations of drug were tested on uninfected and infected cells and cell growth was measured using a soluble formazan assay. […] Compounds that provided at least 50% protection were retested. Compounds that provided at least 50% protection on retest were listed as moderately active. Compounds that reproducibly provided 100% protection were listed as confirmed active. […] Note that the inability to provide protection could be due to toxicity.

Each structure is given as a SMILES string. Values joined by “and” are separate entries in the source; they are usually repeats but may differ in a detail not shown here. Equal entries are not always repeated. Active and inactive are the calls of the source.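 Rule for the calls: active = compounds giving half or more protection of infected cells from virus-caused growth loss, again on retest; inactive = the rest.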

Regarding `CC(C)=CCOc1cc(NC(=S)c2ccoc2C)ccc1Cl`, the EC50 was 0.0759 µM and the IC50 came out at 30.2 µM. As to `Nc1ccc(C(=O)Nn2c(-c3ccccc3)nc3ccccc3c2=O)cc1`, the EC50 is more than 200 µM and the IC50 was more than 200 µM. Take `COc1ccc(C[C@@H]2CN(C(=O)c3ccccc3)[C@H](Cc3ccc(O)cc3)CN2C(=O)c2ccccc2)cc1Br`: the EC50 was more than 200 µM and the IC50 worked out at 126 µM. With `C/C(=N\NS(=O)(=O)c1ccc(C)cc1)C(CN1CCOCC1)C(c1ccccc1)c1c(O)c2ccccc2oc1=O` (configuration not stated), the EC50 was more than 42.7 µM and the IC50 is 19.1 µM.

On to `FC(F)(F)c1cccc(COCCN2CCN(Cc3cccc(C(F)(F)F)c3)CC2)c1`, for which the EC50 was more than 200 µM and the IC50 worked out at 18.2 µM.

For the molecule `COC(=O)C1=C2c3ccccc3NC(=O)N2NC1C(=O)OC` (configuration not stated), the EC50 was more than 550 µM and the IC50 was found to be 501 µM. On to `NS(=O)(=O)c1cc(=O)[nH]c(=O)[nH]1`, for which the EC50 was more than 457 µM and the IC50 was 251 µM. For `Nc1ncnc2c1nnn2C1CCC(CP(=O)(O)O)C1` (configuration not stated), the EC50 is more than 200 µM and the concentration for half-maximal inhibition (IC50) was more than 200 µM. Turning to `S=C1Cc2c(-c3ccc(Cl)cc3)cc(-c3ccccc3)nc2-c2ccccc2N1`, the EC50 was more than 200 µM and the concentration for half-maximal inhibition (IC50) is 20.9 µM. In the case of `O=C1C=CC(=O)c2nc(-c3ccccc3)c(-c3ccccc3)nc21`, the EC50 is 0.363 µM and the IC50 was determined as 12 µM.

On to `CCOC(=O)c1c(NC(=O)c2ccc(Br)cc2)sc2c1CCCC2`, for which the EC50 is more than 200 µM and the IC50 was more than 200 µM.

Take `CC(=O)NNc1nc(C)c(C(=O)/C=C/c2ccc(N(C)C)cc2)s1`: the EC50 was more than 55 µM and the IC50 was more than 55 µM.

For the molecule `CC1=C2CC(C)(C)CC(=O)C2(C)CCC1=O` (configuration not stated), the result was inactive. As for `Cc1c(C)c2ccc(OC(C)C(=O)O)cc2oc1=O` (configuration not stated), the result was inactive.

In the case of `COCCCCCCCCCCCC(=O)O`, the EC50 was more than 200 µM and the half-inhibitory concentration (IC50) is more than 200 µM. As for `C1CCC2(CC1)CCN(CCCN1CCOCC1)CC2`, the outcome was inactive. On to `Cc1cc(S(=O)(=O)Nc2nc(N)nc(N3CCOCC3)n2)c(SCC(=O)O)cc1Cl`, for which the EC50 is more than 200 µM and the IC50 was more than 200 µM. As for `O=C1/C(=C\c2cccc(Oc3ccccc3)c2)S(=O)(=O)C(c2ccccc2)N1c1ccccc1Cl` (configuration not stated), the EC50 is more than 2 µM and the IC50 is 0.0427 µM. Consider `O=c1/c(=C/c2ccc(Cl)cc2)sc2nc(-c3ccccc3)nn12`, for which the EC50 was more than 200 µM and the IC50 was more than 200 µM. Consider `Cc1cn(C2CC(OC=O)C(CO)O2)c(=O)[nH]c1=O` (configuration not stated), for which the EC50 is more than 5750 µM and the IC50 amounted to 61.7 µM. As for `OCC1OC(n2cnc3cncnc32)CC1O` (configuration not stated), the outcome was inactive. For the molecule `O=C1c2cc3c(cc2CC12Cc1ccc4c(c1C2=O)CCCC4)CCCC3` (configuration not stated), the EC50 was more than 200 µM and the IC50 is more than 200 µM.

As to `CCS[C@]1(C)C(=O)c2ccccc2C(=O)[C@@]1(C)O`, the outcome was inactive. With `COc1ccc(-c2oc3cc(O)c(OC)c(O)c3c(=O)c2OC2OC(CO)C(O)C(O)C2O)cc1` (configuration not stated), the outcome was inactive.

For the molecule `CCCCCCCCCc1cc(=O)c2ccc(OCc3ccccc3)cc2o1`, the EC50 is more than 2.75 µM and the half-maximal inhibitory concentration (IC50) is more than 2.75 µM. As to `C=CC(C)(C)N[C@@H](C(=O)N1CCC[C@H]1c1nc(-c2nc(C(=O)OCC=C(C)C)c(C)o2)c(C)o1)C(C)C`, the EC50 was more than 200 µM and the IC50 was found to be 58.9 µM. For the molecule `CC(C)O[C@H]1N(C2CC(N=[N+]=[N-])C(CO)O2)C(=O)NC(=O)[C@]1(C)Br` (some centres not stated), the EC50 was 2.88 µM and the IC50 was more than 200 µM. With `O=C1Cn2c(c3ccccc3nc2=O)N1`, the EC50 was more than 10 µM and the IC50 was more than 10 µM. Take `c1ccc(C[P+](c2ccccc2)(c2ccccc2)c2ccc3ccccc3c2-c2c([P+](Cc3ccccc3)(c3ccccc3)c3ccccc3)ccc3ccccc23)cc1`: the EC50 is more than 257 µM; the IC50 is 0.389 µM and 2.51 µM.

The term EC50 denotes the concentration that produces a half-maximal response. The IC50 is the midpoint of a concentration-inhibition curve. High values mean weaker potency, low ones greater potency.

The values above are taken from PubChem BioAssay AID179 (DTP/NCI, 2004).
